Experimental data published in patent US9006250B2, “4-amino-6-(heterocyclic)picolinates and 6-amino-2-(heterocyclic)pyrimidine-4-carboxylates and their use as herbicides” (Dow AgroSciences, LLC, priority 2013, dated 2015).

Columns and labels:
[1] = system: AVEFA: wild oats (Avena fatua); experiment: Post-Emergent Test I herbicidal activity; assay type: in vivo; settings: 4 Kg ai/ha
Method: (§1) Post-Emergent Test I: Seeds test species were obtained from commercial suppliers and planted into a 5″-round pot containing soil-less media mix (Metro-Mix 360®, Sun Gro Horticulture). Postemergence treatments were planted 8-12 days (d) prior to application and cultured in a greenhouse equipped with supplemental light sources to provide a 16 hour (h) photoperiod at 24-29° C. All pots were surface irrigated. Approximately 10 milligrams (mg) of each compound were dissolved in 1.3 mL acetone-DMSO (97:3, v/v) and diluted with 4.1 mL water-isopropanol-crop oil concentrate (78:20:2, v/v/v) containing 0.02% Triton X-155. Treatments were serial diluted with the above formulation solvent to provide 1.85, 0.926, 0.462 and 0.231 mg/mL of test compound delivered in 2.7 mL/pot (roughly equivalent to 4.0, 2.0, 1.0, and 0.5 kg/ha, respectively). Formulated compounds were applied using a DeVilbiss® compressed air sprayer at 2-4 pounds per square inch (psi). Following treatment, pots were returned to the greenhouse for the duration of the experiment. All pots were sub-irrigated as need to provide optimum growing conditions. All pots were fertilized one time per week by subirrigating with Peters Peat-Lite Special® fertilizer (20-10-20). Phytotoxicity ratings were obtained 10 days after treatment postemergence applications. All evaluations were made visually on a scale of 0 to 100 where 0 represents no activity and 100 represents complete plant death. Visual assessments of plant injury were made based on growth reduction, discoloration, leaf deformity and necrosis.

[2] = system: ECHCG: barnyardgrass (Echinochloa crus-galli); experiment: Post-Emergent Test I herbicidal activity; assay type: in vivo; settings: 4 Kg ai/ha
Method: as §1

[3] = system: HELAN: sunflower (Helianthus annuus); experiment: Post-Emergent Test I herbicidal activity; assay type: in vivo; settings: 4 Kg ai/ha
Method: as §1

[4] = system: IPOHE: ivyleaf morningglory (Ipomoea hederecea); experiment: Post-Emergent Test I herbicidal activity; assay type: in vivo; settings: 4 Kg ai/ha
Method: as §1

[5] = system: SETFA: giant foxtail (Setaria faberi); experiment: Post-Emergent Test I herbicidal activity; assay type: in vivo; settings: 4 Kg ai/ha
Method: as §1

Row | Compound | Visual Growth Reduction (%) 10 Days After Application AVEFA [1] | Visual Growth Reduction (%) 10 Days After Application ECHCG [2] | Visual Growth Reduction (%) 10 Days After Application HELAN [3] | Visual Growth Reduction (%) 10 Days After Application IPOHE [4] | Visual Growth Reduction (%) 10 Days After Application SETFA [5] | melting point
1 | COC(=O)c1nc(-c2ccc3nonc3c2F)cc(N)c1Cl [Compound 6, Methyl 4-amino-3-chloro-6-(4-fluorobenzo[c][1,2,5]oxadiazol-5-yl)picolinate] | G (0-29) | G (0-29) | G (0-29) | G (0-29) | G (0-29) | –
2 | Nc1cc(-c2cc3nonc3cc2F)nc(C(=O)O)c1Cl [Compound 7] | – | – | – | – | – | 177 to 178 °C
